From PubChem BioAssay (NCI)
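Assay format: 96-well plates, 48-hour exposure. GI50: concentration for 50% inhibition of growth. TGI denotes the concentration required for complete inhibition of growth.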

Experiments:
Assay in all cases: NCI-60 cell line screen, 48 h
BT-549 breast = system: BT-549 breast
HS 578T breast = system: HS 578T breast
NCI-H23 lung = system: NCI-H23 lung
CAKI-1 renal = system: CAKI-1 renal
A498 renal = system: A498 renal
MOLT-4 leukemia = system: MOLT-4 leukemia
M14 melanoma = system: M14 melanoma
SK-MEL-28 melanoma = system: SK-MEL-28 melanoma
HL-60(TB) leukemia = system: HL-60(TB) leukemia
SNB-75 CNS = system: SNB-75 CNS

Compound | GI50 (BT-549 breast) | TGI (BT-549 breast) | GI50 (HS 578T breast) | TGI (HS 578T breast) | GI50 (NCI-H23 lung) | TGI (NCI-H23 lung) | GI50 (CAKI-1 renal) | TGI (CAKI-1 renal) | GI50 (A498 renal) | TGI (A498 renal) | GI50 (MOLT-4 leukemia) | TGI (MOLT-4 leukemia) | GI50 (M14 melanoma) | TGI (M14 melanoma) | GI50 (SK-MEL-28 melanoma) | TGI (SK-MEL-28 melanoma) | GI50 (HL-60(TB) leukemia) | TGI (HL-60(TB) leukemia) | GI50 (SNB-75 CNS) | TGI (SNB-75 CNS)
CC1CN(S(=O)(=O)c2oc(-c3ccc(Cl)cc3)nc2C#N)CC(C)O1 (centres undefined) | 1.97 µM | 4.49 µM | 3.92 µM | 27.2 µM | 3.99 µM | 15.9 µM | 1.56 µM | 2.93 µM | 14.4 µM | 27.5 µM | 1.19 µM | 4.5 µM | 1.62 µM | 3.39 µM | 1.81 µM | 3.38 µM | 2.09 µM | 5.84 µM | 10.6 µM | 22.7 µM
CC(C)c1nc(N(C)S(C)(=O)=O)nc(-c2ccc(F)cc2)c1/C=C/[C@@H](O)C[C@@H](O)CC(=O)O | > 100 µM | > 100 µM | 51.9 µM | > 100 µM | > 100 µM | > 100 µM | 67.7 µM | > 100 µM | 3.57 µM | 20.8 µM | > 100 µM | > 100 µM | > 100 µM | > 100 µM | > 100 µM | > 100 µM | > 100 µM | > 100 µM | 18.5 µM | > 77.5 µM
Cc1ncc(C(=O)Nc2ccc(CN3CCN(C)CC3)c(C(F)(F)F)c2)cc1C#Cc1ccc(N)nc1 | 1.2 µM | 4.09 µM | 0.17 µM | 0.988 µM | 0.6 µM | 4.13 µM | 0.104 µM | 0.533 µM | 0.0898 µM | 0.294 µM | 0.155 µM | 7.52 µM | 0.126 µM | 0.797 µM | 0.251 µM | 1.3 µM | 0.29 µM | 1.91 µM | 0.434 µM | 1.1 µM
C#CCNC(=S)N/N=C(\C)c1ccccn1 | 0.618 µM | > 100 µM | 9.84 µM | > 100 µM | 0.208 µM | > 100 µM | 0.396 µM | > 33.8 µM | 1.07 µM | 10.1 µM | 0.126 µM | – | 0.454 µM | 5.15 µM | 2.32 µM | > 100 µM | 0.084 µM | 0.36 µM | 0.943 µM | > 23.7 µM
O=[N+]([O-])c1nccn1CC(O)CN1CCCCC1 (centres undefined) | – | > 100 µM | – | > 100 µM | – | > 100 µM | – | > 100 µM | – | > 100 µM | – | > 100 µM | – | > 100 µM | – | > 100 µM | – | > 100 µM | – | > 100 µM
C=C/C(C)=C/C[C@]1(C)[C@H](C)[C@@H](OC(=O)CCC)[C@H](O)[C@@]23C(=C[C@H](OC)C[C@@H]12)[C@@H](OC(=O)CCC)O[C@H]3OC(C)=O | 1.11 µM | 2.75 µM | 1.13 µM | 3.38 µM | 1.19 µM | 2.83 µM | 1.32 µM | 2.64 µM | 0.223 µM | 0.645 µM | 0.348 µM | 1.55 µM | 0.881 µM | 2.55 µM | 0.431 µM | 1.63 µM | 0.228 µM | 0.693 µM | 1.21 µM | 2.47 µM
COc1cc2ncnc(-n3ncc4cc(NC(=O)Nc5ccc(Cl)c(Cl)c5)ccc43)c2cc1OC | 1.97 µM | 4.17 µM | 2 µM | 7.95 µM | 1.93 µM | 4.24 µM | 2.3 µM | 5.94 µM | 2.37 µM | 6.24 µM | 2.04 µM | 11.4 µM | 1.65 µM | 3.58 µM | 1.57 µM | 3.24 µM | 4.44 µM | 85 µM | 1.24 µM | 3.41 µM
CN(C)c1ccc(/C=C2\N=C(c3ccccc3)N(c3cc(C(F)(F)F)ccc3Cl)C2=O)cc1 | > 100 µM | > 100 µM | > 100 µM | > 100 µM | > 100 µM | > 100 µM | > 100 µM | > 100 µM | > 100 µM | > 100 µM | > 100 µM | > 100 µM | > 100 µM | > 100 µM | > 100 µM | > 100 µM | > 100 µM | > 100 µM | > 100 µM | > 100 µM
O=S1(=O)N(Cc2ccccc2)[C@@H](Cc2ccccc2)[C@H](O)[C@H](O)[C@H](Cc2ccccc2)N1Cc1ccccc1 | 2.65 µM | 5.53 µM | 3.27 µM | 8.38 µM | 3.11 µM | 6.71 µM | 3.65 µM | 7.33 µM | 2.45 µM | 5.18 µM | 2.86 µM | 10.2 µM | 3.04 µM | 6.07 µM | 3.35 µM | 6.9 µM | 2.97 µM | 8.72 µM | 2.31 µM | 7.28 µM
CCOc1ccc(/C(C=O)=C(\Cl)c2ccc(OC)cc2)cc1 | – | > 100 µM | – | > 100 µM | – | > 100 µM | – | > 100 µM | – | > 100 µM | – | > 31.6 µM | – | > 100 µM | – | > 100 µM | – | > 100 µM | – | > 100 µM
O=C(Nc1ccc(-n2ccc3c(NC(=O)c4ccccc4)ncnc32)cc1)c1cccc(C(F)(F)F)c1 | 9.57 µM | 30 µM | 3.65 µM | 33.3 µM | 13.3 µM | 35.7 µM | 1.13 µM | > 44.6 µM | 3.51 µM | 23.2 µM | 0.493 µM | 32.7 µM | 2.85 µM | 17.6 µM | 10.6 µM | 24.9 µM | 3.02 µM | 36.7 µM | 3.58 µM | 22.3 µM
c1cc(-c2nnc(SSc3ncnc4nc[nH]c34)o2)ccn1 | 9.47 µM | > 100 µM | 2.56 µM | > 100 µM | 2.73 µM | > 100 µM | 0.472 µM | 5.17 µM | 4.61 µM | > 100 µM | 1.23 µM | > 100 µM | 0.405 µM | > 100 µM | 43.7 µM | > 100 µM | 2.49 µM | > 100 µM | 0.672 µM | > 100 µM
